According to publication PMC9664070, “The anticonvulsant phytocannabinoids CBGVA and CBDVA inhibit recombinant T-type channels” (Frontiers in Pharmacology, 2022):
“And” between values parts separate entries of the source, which are not always exact repeats. Identical values can stand only once.

Experiments:
Cav3.1 [1] = target: T1, Cav3.1 (Homo sapiens, UniProt O43497); test: FLIPR calcium 5 assay, inhibition of 10 mM Ca-induced fluorescence; type: cell-based; details: for % Inhibition of Fluorescence Cav3.1: 10 µM compound, 10 mM Ca-induced fluorescence, HEK293 cells, mean ± SEM; for IC50: FLIPR concentration-response, HEK293 Cav3.1 cells, read-out: IC50, inhibition of change in fluorescence, Cav3.1
T1 construct: expressed in transfected cells; host or cells: HEK293 Flp-In T-REx
Procedure: (§1) Calcium 5 dye (Molecular Devices, United States ) was used to investigate compound activities at T-type calcium channels using Flexstation III. HEK293 cells overexpressing Cav3.1, Cav 3.2, and Cav 3.3 cells were resuspended in Leibovitz’s L-15 media containing 1% FBS, 1% P/S and 15 mM glucose. 90 µl of the resuspended cells (120,000 cells/well) were plated in a black-walled, 96-well microplate (Corning, NY, United States ) and incubated overnight in humidified air at 37°C. Channel expression was induced with tetracycline (2 μg/ml, Sigma-Aldrich) at plating. On the day of the assay, 90 µl of HBSS containing 5% Calcium dye (bulk kit) and 2.5 mM probenecid (Invitrogen, United States ) was added to each well and incubated for 1 h at 37°C. Change in fluorescence was measured in a FlexStation III plate reader every 2 s (ʎexcitation = 485 nm, ʎemission = 525 nm) for the duration of the experiment at 37°C. After 2 min baseline recording, drugs (20 µL) were added and read for 5 min, followed by 10 mM CaCl2 (20 µl) and read for a further 3 min.
(§2) Unless otherwise stated, five independent experiments were performed for each condition, with each experiment conducted in duplicate. For the calcium assay, change in fluorescence by 10 mM Ca in the presence of drugs was normalised to change in fluorescence caused by 10 mM Ca in the presence of vehicle only to allow for comparison. In the Alphascreen assay, results were normalised to EC80 of ML-186 after subtraction of basal ERK phosphorylation (presence of a vehicle and 0.2% DMSO) to allow for easy comparison between phytocannabinoid activities. We fitted all concentration-response curves to a 4-parameter sigmoidal inhibitory response curve in GraphPad Prism (Version 6 GraphPad Software Inc., CA, United States) to derive IC50 and Emax values. All statistical analyses were conducted with GraphPad Prism. Two-tailed, unpaired t-tests were used to compare two data points and one-way ANOVA for more than two data points with Tukey post-hoc analysis. p-values < 0.05 were considered statistically significant.
(§3) Our investigation of T-type channels began with a single-point screen, as described by [Bladen et al. (2021)]. We screened the inhibitory effect of 10 µM phytocannabinoids on the change in fluorescence elicited by the addition of 10 mM Ca^2+ in cells expressing Cav3.1, Cav3.2 or Cav3.3 channels ([Xie et al., 2007]; [Bladen et al., 2021]).

Cav3.3 = target: T2, Cav3.3 (Homo sapiens, UniProt Q9P0X4); test: as above; type: cell-based; details: 10 µM compound, HEK293 cells, mean ± SEM
T2 construct: expressed in transfected cells; host or cells: HEK293 Flp-In T-REx
Procedure: as §1, §2, §3

[2] = tested on: hyperthermia-induced seizures; design: method as in earlier work; details: Scn1a+/- mice, ref Anderson et al., 2019, 2021a, 2021b; cited from earlier work
GPR55 = target: T3, GPR55 (Homo sapiens, UniProt Q9Y2T6); test: Alphascreen ERK phosphorylation assay, antagonism of ML-186-induced ERK phosphorylation; type: cell-based; details: in the presence of EC80 of ML-186 (0.45 µM), HEK 293 GPR55 cells
T3 construct: expressed in transfected cells; host or cells: HEK 293
Procedure: as §2

Cav3.1 [3] = target: T1, Cav3.1; test: Whole-cell voltage-clamp electrophysiology in HEK293 Flp-In T-REx cells; type: cell-based
Procedure: All whole-cell voltage-clamp recordings from HEK293 Flp-In T-REx cells stably transfected with human Cav3.1, Cav 3.2 and Cav 3.3 were performed at room temperature. At least 24 h prior to experiments, cells were detached from flasks using trypsin/EDTA and plated into 10 cm sterile tissue culture dishes containing 10 ml of supplemented DMEM and 10–15 glass coverslips (12 mm diameter, ProScitech, QLD, Australia). Culture dishes were then kept overnight in same conditions as flasks to allow cells to adhere to coverslips. They were then transferred to a 30°C/5% CO2 incubator to inhibit cell proliferation until ready to be used for electrophysiology experiments. At this stage, channel expression was induced with tetracycline (2 μg/ml, Sigma-Aldrich) 8–24 h prior to recording cells.
External recording solutions contained (in mM): 114 CsCl, 5 BaCl2, 1 MgCl2, 10 HEPES, 10 glucose, adjusted to pH 7.4 with CsOH. The internal patch pipette solution contained (in mM): 126.5 CsMeSO4, 2 MgCl2, 11 EGTA, 10 HEPES adjusted to pH 7.3 with CsOH. Internal solution was supplemented with 0.6 mM GTP and 2 mM ATP and mixed thoroughly just before use. Liquid junction potentials for the above solutions were calculated before experiments using pClamp 10 software and corrected during experiments. Compounds were prepared daily from 30 mM DMSO stocks and diluted into an external solution just before use. Compounds were then applied rapidly and locally to the cells using a custom-built gravity-driven micro-perfusion system ([Feng et al., 2003]). […] Currents were elicited from a holding potential of -100 mV and were measured by conventional whole-cell patch clamp techniques using an Axopatch 200B amplifier in combination with Clampex 9.2 software. (Molecular Devices, Sunnyvale, CA). After establishing whole cell configuration, cellular capacitance was minimised using the amplifier’s built-in analogue compensation. Series resistance was kept to <10 MΩ and was compensated to at least 85% in all experiments. All data were digitised at 10 kHz with a Digidata 1,320 interface (Molecular Devices) and filtered at 1 kHz (8-pole Bessel filter). Raw and online leak-subtracted data were both collected simultaneously, P/N4 leak subtraction was performed using opposite polarity and after the protocol sweep.
For tonic inhibition of T-type currents, membrane potential was stepped from −100 mV to −30 mV for 200 ms and then allowed to recover for 12 s (1 sweep). A minimum of 10 sweeps were collected under vehicle control external perfusion to allow for control peak current to equilibrate. The drug was then continuously perfused, and sweeps were recorded until no further inhibition was seen (minimum of 3 sweeps with the same amplitude). In current-voltage relation studies, the membrane potential was held at −100 mV and cells were depolarised from −70 to 50 mV in 10 mV increments. For steady-state inactivation studies, a 3.6 s conditioning pre-pulse of various magnitudes (initial holding at −110 mV) was followed by a depolarising pulse to −30 mV. Individual sweeps were separated by 12 s to permit recovery from inactivation between conditioning pulses. The duration of the test pulse was typically 20 ms, and the current amplitude obtained from each test pulse was normalised to that observed at the holding potential of −100 mV.
The effect of CBGVA and CBDVA (5 µM each) on slow inactivation was tested using a 2-pulse voltage protocol as described in Bladen et al., (2021). Briefly, cells expressing Cav3.1 were initially depolarised with a 200 ms test pulse from -120 mV to −30 mV to generate peak current (P1) and followed by a 10 s pre-conditioning pulse to −80 mV to reverse fast inactivation. Cells were further depolarised with another 200 ms test pulse from −120 to −30 mV (P2) (Figure 2 inset).
THC and CBD cause substantial frequency-dependent inhibition of Cav3.2 and Nav1.8 channels, respectively ([Ross et al., 2008]; [Bladen et al., 2021]; [Zhang and Bean, 2021]). […]

[4] = Plasma and brain exposure at anticonvulsant doses in mice (literature); type: in vivo; details: from peak plasma concentration and brain-plasma ratio
Cav3.2 = target: T4, Cav3.2 (Homo sapiens, UniProt O95180); test: FLIPR calcium 5 assay, inhibition of 10 mM Ca-induced fluorescence; type: cell-based; details: FLIPR concentration-response, HEK293 Cav3.2 cells; read-out: IC50, inhibition of change in fluorescence, Cav3.2
T4 construct: expressed in transfected cells; host or cells: HEK293 Flp-In T-REx
Procedure: as §1, §2, §3

[5] = ref Anderson et al., cited from earlier work

T2 sequence (Q9P0X4 whole entry): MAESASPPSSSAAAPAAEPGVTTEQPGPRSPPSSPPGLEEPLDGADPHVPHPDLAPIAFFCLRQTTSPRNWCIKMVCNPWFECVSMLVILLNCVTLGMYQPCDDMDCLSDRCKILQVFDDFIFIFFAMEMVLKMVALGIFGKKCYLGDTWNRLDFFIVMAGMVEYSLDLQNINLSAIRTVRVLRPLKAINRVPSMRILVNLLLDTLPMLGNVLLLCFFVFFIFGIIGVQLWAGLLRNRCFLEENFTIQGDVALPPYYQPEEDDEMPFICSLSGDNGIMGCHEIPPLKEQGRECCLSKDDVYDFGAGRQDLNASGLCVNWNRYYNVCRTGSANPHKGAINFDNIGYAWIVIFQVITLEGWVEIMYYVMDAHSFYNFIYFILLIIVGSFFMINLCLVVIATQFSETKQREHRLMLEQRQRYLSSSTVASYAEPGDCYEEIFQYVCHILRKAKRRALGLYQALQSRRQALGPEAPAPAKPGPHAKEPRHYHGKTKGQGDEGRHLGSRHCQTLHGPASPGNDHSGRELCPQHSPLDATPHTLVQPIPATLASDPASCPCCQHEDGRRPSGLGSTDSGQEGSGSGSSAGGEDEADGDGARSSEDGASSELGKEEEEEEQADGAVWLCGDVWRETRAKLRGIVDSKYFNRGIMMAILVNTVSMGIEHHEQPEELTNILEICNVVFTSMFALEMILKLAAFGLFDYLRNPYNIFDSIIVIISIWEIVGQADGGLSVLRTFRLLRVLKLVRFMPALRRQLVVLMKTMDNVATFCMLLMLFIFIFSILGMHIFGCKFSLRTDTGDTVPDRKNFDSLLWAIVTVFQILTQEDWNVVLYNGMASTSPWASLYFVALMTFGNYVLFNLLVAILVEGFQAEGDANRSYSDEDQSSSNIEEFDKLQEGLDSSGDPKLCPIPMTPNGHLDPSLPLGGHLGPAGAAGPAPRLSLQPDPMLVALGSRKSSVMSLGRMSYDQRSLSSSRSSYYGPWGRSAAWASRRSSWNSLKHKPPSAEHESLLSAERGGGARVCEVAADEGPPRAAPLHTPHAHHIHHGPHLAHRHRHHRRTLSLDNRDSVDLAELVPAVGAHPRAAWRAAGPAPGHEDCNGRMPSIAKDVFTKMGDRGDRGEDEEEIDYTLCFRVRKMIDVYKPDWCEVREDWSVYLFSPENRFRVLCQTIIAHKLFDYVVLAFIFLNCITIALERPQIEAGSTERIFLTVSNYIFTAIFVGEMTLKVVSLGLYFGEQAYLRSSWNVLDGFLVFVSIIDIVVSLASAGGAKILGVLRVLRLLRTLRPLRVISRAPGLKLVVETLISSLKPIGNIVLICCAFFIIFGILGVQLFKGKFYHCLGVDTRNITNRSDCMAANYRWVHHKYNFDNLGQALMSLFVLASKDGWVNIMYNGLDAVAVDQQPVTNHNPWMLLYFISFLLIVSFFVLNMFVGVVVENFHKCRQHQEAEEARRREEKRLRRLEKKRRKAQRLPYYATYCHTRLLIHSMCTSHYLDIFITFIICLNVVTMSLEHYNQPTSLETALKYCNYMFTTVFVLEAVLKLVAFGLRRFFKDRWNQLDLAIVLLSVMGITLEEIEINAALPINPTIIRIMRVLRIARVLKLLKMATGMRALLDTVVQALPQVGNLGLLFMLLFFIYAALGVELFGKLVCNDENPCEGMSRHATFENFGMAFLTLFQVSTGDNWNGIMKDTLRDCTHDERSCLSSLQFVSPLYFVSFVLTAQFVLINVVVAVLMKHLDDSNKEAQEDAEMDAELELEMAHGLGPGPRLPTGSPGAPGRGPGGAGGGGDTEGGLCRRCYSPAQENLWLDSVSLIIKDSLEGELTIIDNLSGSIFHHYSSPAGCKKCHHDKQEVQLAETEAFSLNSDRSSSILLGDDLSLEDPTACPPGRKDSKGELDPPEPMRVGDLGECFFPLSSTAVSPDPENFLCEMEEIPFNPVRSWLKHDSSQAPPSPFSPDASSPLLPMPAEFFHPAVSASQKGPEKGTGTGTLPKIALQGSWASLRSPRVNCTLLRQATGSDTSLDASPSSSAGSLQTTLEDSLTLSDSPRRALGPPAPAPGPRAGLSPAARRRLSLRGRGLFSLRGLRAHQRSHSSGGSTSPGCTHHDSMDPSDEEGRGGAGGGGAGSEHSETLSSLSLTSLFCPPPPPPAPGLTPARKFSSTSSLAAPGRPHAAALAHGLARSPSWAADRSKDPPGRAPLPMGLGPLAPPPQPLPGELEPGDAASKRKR
T1 sequence (O43497 whole entry): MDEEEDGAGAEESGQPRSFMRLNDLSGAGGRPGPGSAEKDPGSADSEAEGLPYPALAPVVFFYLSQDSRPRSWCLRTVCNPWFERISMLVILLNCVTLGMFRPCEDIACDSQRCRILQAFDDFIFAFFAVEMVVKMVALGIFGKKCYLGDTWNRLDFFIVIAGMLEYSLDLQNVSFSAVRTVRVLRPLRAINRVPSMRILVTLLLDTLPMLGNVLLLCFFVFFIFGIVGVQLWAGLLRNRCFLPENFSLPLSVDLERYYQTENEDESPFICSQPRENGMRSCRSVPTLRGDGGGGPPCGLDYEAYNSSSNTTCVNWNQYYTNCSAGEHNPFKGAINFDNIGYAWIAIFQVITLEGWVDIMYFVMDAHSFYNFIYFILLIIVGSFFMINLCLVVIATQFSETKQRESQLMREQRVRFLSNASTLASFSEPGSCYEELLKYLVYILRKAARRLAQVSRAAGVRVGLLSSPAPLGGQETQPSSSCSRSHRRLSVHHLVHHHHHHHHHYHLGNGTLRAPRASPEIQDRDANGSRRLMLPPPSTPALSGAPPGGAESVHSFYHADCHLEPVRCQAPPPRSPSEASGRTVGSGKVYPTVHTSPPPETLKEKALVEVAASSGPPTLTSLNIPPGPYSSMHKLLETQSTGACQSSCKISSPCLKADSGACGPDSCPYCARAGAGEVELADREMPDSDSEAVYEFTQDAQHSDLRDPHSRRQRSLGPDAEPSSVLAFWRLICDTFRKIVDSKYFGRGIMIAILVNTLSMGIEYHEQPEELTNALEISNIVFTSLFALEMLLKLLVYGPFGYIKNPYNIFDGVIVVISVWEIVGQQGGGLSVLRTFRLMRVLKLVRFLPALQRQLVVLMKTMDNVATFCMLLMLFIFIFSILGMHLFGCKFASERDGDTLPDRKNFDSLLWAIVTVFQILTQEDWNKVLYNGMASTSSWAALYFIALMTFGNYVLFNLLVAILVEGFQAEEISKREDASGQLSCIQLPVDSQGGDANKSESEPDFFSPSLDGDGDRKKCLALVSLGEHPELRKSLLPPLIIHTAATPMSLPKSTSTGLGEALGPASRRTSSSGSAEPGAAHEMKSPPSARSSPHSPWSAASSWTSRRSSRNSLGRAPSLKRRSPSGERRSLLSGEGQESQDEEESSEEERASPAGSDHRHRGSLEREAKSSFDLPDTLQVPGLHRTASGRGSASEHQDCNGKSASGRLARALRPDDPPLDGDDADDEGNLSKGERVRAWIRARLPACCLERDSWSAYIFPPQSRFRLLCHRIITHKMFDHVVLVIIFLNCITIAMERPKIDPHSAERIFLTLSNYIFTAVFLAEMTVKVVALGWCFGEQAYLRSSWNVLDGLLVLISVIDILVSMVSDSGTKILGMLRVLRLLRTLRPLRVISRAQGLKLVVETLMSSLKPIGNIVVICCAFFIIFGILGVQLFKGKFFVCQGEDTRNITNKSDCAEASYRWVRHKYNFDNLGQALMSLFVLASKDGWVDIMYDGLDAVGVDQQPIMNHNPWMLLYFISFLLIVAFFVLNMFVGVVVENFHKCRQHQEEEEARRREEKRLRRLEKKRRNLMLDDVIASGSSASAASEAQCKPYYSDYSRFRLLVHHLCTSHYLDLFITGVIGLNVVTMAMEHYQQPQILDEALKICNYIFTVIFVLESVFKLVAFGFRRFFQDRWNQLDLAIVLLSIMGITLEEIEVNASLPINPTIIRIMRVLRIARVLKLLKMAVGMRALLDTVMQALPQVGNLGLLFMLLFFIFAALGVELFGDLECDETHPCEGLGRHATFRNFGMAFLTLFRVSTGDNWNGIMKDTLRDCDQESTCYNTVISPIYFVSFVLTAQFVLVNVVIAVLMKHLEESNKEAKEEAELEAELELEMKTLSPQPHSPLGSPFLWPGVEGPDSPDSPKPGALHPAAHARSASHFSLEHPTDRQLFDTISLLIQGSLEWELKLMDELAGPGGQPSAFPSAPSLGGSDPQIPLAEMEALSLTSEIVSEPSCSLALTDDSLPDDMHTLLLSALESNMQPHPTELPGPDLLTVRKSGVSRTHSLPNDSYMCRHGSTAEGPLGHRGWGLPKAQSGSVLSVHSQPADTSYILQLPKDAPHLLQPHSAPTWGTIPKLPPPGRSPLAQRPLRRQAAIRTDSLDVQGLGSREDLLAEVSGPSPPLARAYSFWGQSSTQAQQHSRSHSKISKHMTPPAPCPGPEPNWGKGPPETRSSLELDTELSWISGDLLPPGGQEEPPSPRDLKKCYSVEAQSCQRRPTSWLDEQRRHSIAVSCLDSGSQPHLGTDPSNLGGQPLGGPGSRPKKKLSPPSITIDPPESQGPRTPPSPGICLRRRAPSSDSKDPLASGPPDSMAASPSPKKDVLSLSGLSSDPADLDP
T3 sequence (Q9Y2T6 whole entry, species assumed): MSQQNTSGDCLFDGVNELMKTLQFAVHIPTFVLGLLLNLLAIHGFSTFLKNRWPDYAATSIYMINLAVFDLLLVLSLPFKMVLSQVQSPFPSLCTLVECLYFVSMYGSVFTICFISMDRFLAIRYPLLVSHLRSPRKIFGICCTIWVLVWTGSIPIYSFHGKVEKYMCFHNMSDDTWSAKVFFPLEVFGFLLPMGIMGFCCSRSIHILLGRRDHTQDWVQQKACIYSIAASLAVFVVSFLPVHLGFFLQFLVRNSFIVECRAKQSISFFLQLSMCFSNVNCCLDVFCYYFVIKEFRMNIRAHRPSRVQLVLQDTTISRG

CC(C)[C@H]1c2ccc(F)cc2CC[C@@]1(CCN(C)CCCc1nc2ccccc2[nH]1)OC(=O)C1CC1 [NNC550396, reference compound]
% Inhibition of Fluorescence Cav3.1 (Cav3.1 [1]): 82 ± 8% | IC50 (Cav3.1 [1]): 730 nM | % Inhibition of Fluorescence Cav3.3 (Cav3.3): 89 ± 2%

CCCCCc1cc(O)c(C/C=C(\C)CCC=C(C)C)c(O)c1C(=O)O [CBGA, cannabigerolic acid]
effect against hyperthermia-induced seizures [2]: anticonvulsant

CCCCCc1cc2c(c(O)c1C(=O)O)C=CC(C)(CCC=C(C)C)O2 (stereo not shown) [CBCA, cannabichromenic acid]
% Inhibition of Fluorescence Cav3.1 (Cav3.1 [1]): 59 ± 9% | % Inhibition of Fluorescence Cav3.3 (Cav3.3): 11 ± 10% | effect against hyperthermia-induced seizures [2]: anticonvulsant

CCCc1cc(O)c(C/C=C(\C)CCC=C(C)C)c(O)c1C(=O)O [CBGVA, cannabigerovarinic acid]
IC50 (GPR55): 8000 nM | V0.5 of voltage dependence of Cav3.1 activation (Cav3.1 [3]; 5 µM compound): −49.1 ± 0.5 mV | half-inactivation (V0.5), steady-state inactivation of Cav3.1 (Cav3.1 [3]; 5 µM compound): −82.1 ± 0.8 mV | Cav3.1 relative current at 50th action potential, % of first (Cav3.1 [3]; 5 µM, 0.4 Hz stimulation): 73 ± 3% | Cav3.1 relative current at 50th action potential, % of first (Cav3.1 [3]; 5 µM, 0.8 Hz stimulation): 88 ± 1% | inhibition of Cav3.1 peak current, second test pulse (P2), slow inactivated state (Cav3.1 [3]; 5 µM, 2-pulse voltage protocol, after 10 s pre-conditioning pulse to −80 mV): 72 ± 3% | inhibition of Cav3.1 peak current, first test pulse (P1) (Cav3.1 [3]; 5 µM, 2-pulse voltage protocol, before slow inactivation): 61 ± 3% | Cav3.1 relative current at 50th action potential, % of first (Cav3.1 [3]; 5 µM, 2.0 Hz stimulation): 77 ± 1% | IC50 (Cav3.1 [3]; patch clamp, step −100 mV to −30 mV every 12 s, read-out: IC50, tonic inhibition of Cav3.1 current amplitude): 3000 nM | expected brain concentration [4]: 48 µM | IC50 (Cav3.1 [1]): 6000 nM | IC50 (Cav3.2): 2000 nM | % Inhibition of Fluorescence Cav3.3 (Cav3.3): 35 ± 11% | Peak plasma concentration ([5]; anticonvulsant doses in mice, 2021b): approximately 1,200 µM | brain-plasma ratio [5]; 2019: 4% | effect against hyperthermia-induced seizures [2]: anticonvulsant

CCCc1cc(O)c(C/C=C(\C)CCC=C(C)C)c(O)c1 [CBGV]
% Inhibition of Fluorescence Cav3.1 (Cav3.1 [1]): < 80% and 51 ± 14% | % Inhibition of Fluorescence Cav3.3 (Cav3.3): 6 ± 3%
